Measured values published in patent publication US4775673A, “Substituted acylpiperazinoquinazolines and pharmaceutical compositions containing same” (priority 1983, dated 1988).
Structures can show the parent of a compound that is named as a salt.

Assays:
[1] = tested on: normotensive monkeys (Macaca mulatta); test: blood pressure reduction in non-anesthetized normotensive monkeys; format: in vivo; settings: for duration of blood pressure reduction: monkeys
Description: (§1) Of particular interest in this respect are the compounds of formula I above. The hydrochlorides of these compounds afford up to more than 15% aqueous solutions. […] In addition, the compounds of formula I are extremely non-toxic.
(§2) A typical, highly advantageous compound of the invention is the corresponding 2-methyloxypropionyl derivative of formula I, in which n is 0 and both R and R1 are methyl groups. In nonanesthesized (conscious) DOCA-hypertensive rats, this compound in an oral dose of 1 mg/kg elicits a blood pressure reduction of 20%. A dramatic reduction in blood pressure, as much as 40-50%, is observed in the same animals at a dose of 10 mg/kg p.o. Similarly, in non-anesthesized normotensive monkeys (Macaca mulatta), a dose of 3 mg/kg p.o. reduces the blood pressure by 20%. A dose of 25 mg/kg p.o. reduces blood pressure by 35 to 50% for a period of 7 to 9 hours. An intravenous administration of 2.5 mg/kg as a bolus to monkeys reduces blood pressure by 30 to 50% for 1 hour. A similar administration of 10 mg/kg i.v. elicits a blood pressure reduction of 50 to 70% for more then 7 hours. In rabbits anesthesized by pentobarbital, a dose of 25 mg/kg p.o. reduces blood pressure by 20 to 40% for a period of 4 to 5 hours. In non-anesthesized rabbits, a dose as low as 0.1 mg/kg i.v. elicits a transient but significant blood pressure reduction of almost 20%, shortly after administration. A dose of 1 mg/kg i.v. reduces the blood pressure by 20 to 30% for a period of more than 8 hours.

[2] = tested on: non-anesthesized rabbits; test: blood pressure reduction in non-anesthetized rabbits; format: in vivo, rabbit
Description: as §1
as §2, with “A dose of 1 mg/kg i.v. reduces the blood pressure by 20 to 30% for a period of more than 8 hours.” left out

[3] = acute toxicity assay in rats; settings: rat, in vivo, iv
[4] = tested on: DOCA-hypertensive rats; test: blood pressure reduction in nonanesthetized (conscious) DOCA-hypertensive rats; format: in vivo, rat
Description: as §1
as §2, with “A dose of 1 mg/kg i.v. reduces the blood pressure by 20 to 30% for a period of more than 8 hours.” left out

[5] = acute toxicity assay in mice; format: in vivo, mouse; settings: mouse, in vivo, iv, mice
Excerpt: as §1

[6] = tested on: mice; test: acute toxicity assay in mice; format: in vivo, mouse; settings: acute toxicity assays
Excerpt: as §1

[7] = prior art; cited from earlier work
[8] = tested on: post-synaptic alpha1 -adrenergic receptors; settings: prior art; cited from earlier work
[9] = tested on: hypertension; settings: prior art; cited from earlier work

SMILES	duration of blood pressure reduction ([1]; 2.5 mg/kg i.v. bolus)	blood pressure reduction ([1]; 3 mg/kg p.o., non-anesthetized monkeys)	duration of blood pressure reduction ([1]; 10 mg/kg i.v.)	blood pressure reduction ([2]; 0.1 mg/kg i.v., transient, shortly after administration)	duration of blood pressure reduction ([2]; 1 mg/kg i.v.)	LD50 [3]	blood pressure reduction ([4]; 1 mg/kg oral)	reduction in blood pressure ([4]; 10 mg/kg p.o.)	LD50 [5]	toxicity [6]	solubility in water [7]	blocking of post-synaptic alpha1-adrenergic receptors [8]	antihypertensive activity [9]
COc1cc2nc(N3CCN(C(=O)C(C)OC)CC3)nc(N)c2cc1OC (stereo not shown) [2-methoxypropionyl derivative, 1-(4-amino-6,7-dimethoxy-2-quinazolinyl)-4-(2-methoxyproprionyl)piperazine]	1 h	20%	> 7 h	~20%	more than 8 hours	440 mg/kg	20%	40-50%	360 mg/kg	extremely low in toxicity			
COc1cc2nc(N3CCN(C(=O)c4ccco4)CC3)nc(N)c2cc1OC [Prazosin, 1-(4-amino-6,7-dimethyoxy2-quinazolinyl)-4-(2-furoyl) piperazine hydrochloride]											only slightly soluble in water	blocking the post-synaptic alpha1 -adrenergic receptors	highly efficient antihypertensive compound
